Reference: patent US8143403B2 (Bristol-Myers Squibb Company, priority 2008, dated 2012)

molecular target: T1, Human CGRP Receptor (Homo sapiens, UniProt O60894+Q16602); assay: Radioligand binding assay, [125I]-CGRP displacement on SK-N-MC membranes; conditions: displacement of [125I]-CGRP (18 pM final), 2 h room temperature
T1 construct: Crude membranes were prepared from SK-N-MC cells expressing CGRP receptors; endogenous in cells; host or cells: SK-N-MC cells (crude membranes)
Experimental: Tissue Culture. SK-N-MC cells were grown at 37° C. in 5% CO2 as a monolayer in medium consisting of MEM with Earle's salts and L-glutamine (Invitrogen) supplemented with 10% fetal bovine serum (Invitrogen).
Membrane Preparation. Crude membranes were prepared from SK-N-MC cells expressing CGRP receptors. The cells were rinsed twice with phosphate-buffered saline (155 mM NaCl, 3.3 mM Na2HPO4, 1.1 mM KH2PO4, pH 7.4), and incubated for 5-10 min. at 4° C. in hypotonic lysis buffer consisting of 10 mM Tris (pH 7.4) and 5 mM EDTA. The cells were transferred from plates to polypropylene tubes (16×100 mm) and homogenized using a polytron. Homogenates were centrifuged at 32,000×g for 30 min. The pellets were resuspended in cold hypotonic lysis buffer with 0.1% mammalian protease inhibitor cocktail (Sigma) and assayed for protein concentration. The SK-N-MC homogenate was aliquoted and stored at −80° C. Radioligand Binding Assay. The compounds of invention were solubilized and carried through serial dilutions using 100% DMSO. Aliquots from the compound serial dilutions were further diluted 25 fold into assay buffer (50 mM Tris-Cl pH 7.5, 5 mM MgCl2, 0.005% Triton X-100) and transferred (volume 50 μl) into 96 well assay plates. [^125I]-CGRP (GE Healthcare or Perkin-Elmer) was diluted to 72 pM in assay buffer and a volume of 50 μl was added to each well. SK-N-MC membranes were thawed, diluted in assay buffer with fresh 0.1% mammalian protease inhibitor cocktail (Sigma), and re-homogenized. SK-N-MC homogenate (7 μg/well) was added in a volume of 100 μl. The assay plates were then incubated at room temperature for 2 h. Assays were stopped by addition of excess cold wash buffer (50 mM Tris-Cl pH 7.5, 0.1% BSA) immediately followed by filtration over glass fiber filters (Whatman GF/B) previously soaked in 0.5% PEI. Non-specific binding was defined with 1 μM beta-CGRP (Bachem). Protein bound radioactivity was determined using a gamma or scintillation counter. The resulting data was analyzed using a four parameter competitive binding equation (XLfit v2.0) and the IC50 was defined as the concentration of a compound of invention required to displace 50% of radioligand binding. Final assay concentration of [^125I]-CGRP was 18 pM. […] All compounds of invention were evaluated in at least two separate experiments.

T1 sequence (Q16602 23-461): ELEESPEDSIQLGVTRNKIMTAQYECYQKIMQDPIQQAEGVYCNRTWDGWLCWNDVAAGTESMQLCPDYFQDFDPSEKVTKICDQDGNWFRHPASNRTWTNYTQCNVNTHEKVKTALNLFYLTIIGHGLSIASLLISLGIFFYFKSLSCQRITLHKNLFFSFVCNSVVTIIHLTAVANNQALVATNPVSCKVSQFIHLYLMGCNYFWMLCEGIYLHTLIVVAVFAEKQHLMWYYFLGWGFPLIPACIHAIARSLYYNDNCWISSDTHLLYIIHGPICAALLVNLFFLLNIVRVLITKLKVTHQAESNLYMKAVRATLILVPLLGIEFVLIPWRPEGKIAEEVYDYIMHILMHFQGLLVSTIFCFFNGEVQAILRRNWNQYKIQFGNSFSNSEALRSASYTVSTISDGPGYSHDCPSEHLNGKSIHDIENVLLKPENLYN
T1 sequence (O60894 27-148): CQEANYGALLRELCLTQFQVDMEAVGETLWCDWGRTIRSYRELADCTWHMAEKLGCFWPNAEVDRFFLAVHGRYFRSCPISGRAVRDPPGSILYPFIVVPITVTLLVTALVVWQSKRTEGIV

| IC50 | Compound |
| --- | --- |
| 0.76 nM | O=C(O[C@@H]1CC[C@@H](c2cccc(F)c2F)Cc2ccc(Cl)nc21)N1CCC(n2c(=O)[nH]c3ncccc32)CC1 [Example 19, (6R,9R)-2-Chloro-6-(2,3-difluorophenyl)-6,7,8,9-tetrahydro-5H-cyclohepta[b]pyridin-9-yl 4-(2-oxo-2,3-dihydro-1H-imidazo[4,5-b]pyridin-1-yl)piperidine-1-carboxylate] |
| 1.6 nM | O=C(N[C@@H]1CC[C@@H](c2cccc(F)c2F)Cc2cccnc21)N1CCC(n2c(=O)[nH]c3ncccc32)CC1 (single isomer, unassigned) [Example 8] |
| 0.78 nM | CN(C)c1ccc2c(n1)[C@H](OC(=O)N1CCC(n3c(=O)[nH]c4ncccc43)CC1)CC[C@@H](c1cccc(F)c1F)C2 [Example 18, (6R,9R)-6-(2,3-difluorophenyl)-2-(dimethylamino)-6,7,8,9-tetrahydro-5H-cyclohepta[b]pyridin-9-yl 4-(2-oxo-2,3-dihydro-1H-imidazo[4,5-b]pyridin-1-yl)piperidine-1-carboxylate] |
| 8.89 nM | O=C(O[C@@H]1CC[C@@H](c2ccccc2)Cc2cccnc21)N1CCC(n2c(=O)[nH]c3ncccc32)CC1 (relative stereo) [Example 10, (6,9-Trans)-6-Phenyl-6,7,8,9-tetrahydro-5H-cyclohepta[b]pyridin-9-yl 4-(2-oxo-2,3-dihydro-1H-imidazo[4,5-b]pyridin-1-yl)piperidine-1-carboxylate] |
| 0.98 nM | CN(C)c1cnc2c(c1)C[C@H](c1cccc(F)c1F)CC[C@H]2OC(=O)N1CCC(n2c(=O)[nH]c3ncccc32)CC1 [Example 15, (6R,9R)-6-(2,3-difluorophenyl)-3-(dimethylamino)-6,7,8,9-tetrahydro-5H-cyclohepta[b]pyridin-9-yl 4-(2-oxo-2,3-dihydro-1H-imidazo[4,5-b]pyridin-1-yl)piperidine-1-carboxylate] |
| 0.89 nM | O=C(C[C@@H]1CC[C@@H](c2cccc(F)c2F)Cc2cccnc21)N1CCC(n2c(=O)[nH]c3ncccc32)CC1 (single isomer, unassigned) [Example 6] |
| 0.8 nM | Nc1ccc2c(n1)[C@H](OC(=O)N1CCC(n3c(=O)[nH]c4ncccc43)CC1)CC[C@@H](c1cccc(F)c1F)C2 [Example 17, (6R,9R)-2-Amino-6-(2,3-difluorophenyl)-6,7,8,9-tetrahydro-5H-cyclohepta[b]pyridin-9-yl 4-(2-oxo-2,3-dihydro-1H-imidazo[4,5-b]pyridin-1-yl)piperidine-1-carboxylate] |
| 4.14 nM | O=C(O[C@@H]1CC[C@@H](c2cc(F)ccc2F)Cc2cccnc21)N1CCC(n2c(=O)[nH]c3ncccc32)CC1 (racemic) [Example 11, (6,9-trans)-6-(2,5-Difluorophenyl)-6,7,8,9-tetrahydro-5H-cyclohepta[b]pyridin-9-yl 4-(2-oxo-2,3-dihydro-1H-imidazo[4,5-b]pyridin-1-yl)piperidine-1-carboxylate] |
| 0.44 nM | N#Cc1ccc2c(n1)[C@H](OC(=O)N1CCC(n3c(=O)[nH]c4ncccc43)CC1)CC[C@@H](c1cccc(F)c1F)C2 (relative stereo) [Example 4, (6,9-trans)-2-cyano-6-(2,3-difluorophenyl)-6,7,8,9-tetrahydro-5H-cyclohepta[b]pyridin-9-yl 4-(2-oxo-2,3-dihydro-1H-imidazo[4,5-b]pyridin-1-yl)piperidine-1-carboxylate] |
| > 1000 nM | O=C(N[C@H]1CC[C@H](c2cccc(F)c2F)Cc2cccnc21)N1CCC(n2c(=O)[nH]c3ncccc32)CC1 [Example 9, N-((6S,9S)-6-(2,3-difluorophenyl)-6,7,8,9-tetrahydro-5H-cyclohepta[b]pyridin-9-yl)-4-(2-oxo-2,3-dihydro-1H-imidazo[4,5-b]pyridin-1-yl)piperidine-1-carboxamide] |
| > 100 nM | O=C(C[C@H]1CC[C@H](c2cccc(F)c2F)Cc2cccnc21)N1CCC(n2c(=O)[nH]c3ncccc32)CC1 (single isomer, unassigned) [Example 7] |
| 4.04 nM | O=C(C[C@@H]1CC[C@H](c2cccc(F)c2F)Cc2cccnc21)N1CCC(n2c(=O)[nH]c3ncccc32)CC1 (relative stereo) [Example 5, 1-(1-(2-((6,9-Cis)-6-(2,3-difluorophenyl)-6,7,8,9-tetrahydro-5H-cyclohepta[b]pyridin-9-yl)acetyl)piperidin-4-yl)-1H-imidazo[4,5-b]pyridin-2(3H)-one] |
| 6.96 nM | CC(C)(C)Nc1ccc2c(n1)[C@H](OC(=O)N1CCC(n3c(=O)[nH]c4ncccc43)CC1)CC[C@@H](c1cccc(F)c1F)C2 [Example 16, (6R,9R)-2-(tert-Butylamino)-6-(2,3-difluorophenyl)-6,7,8,9-tetrahydro-5H-cyclohepta[b]pyridin-9-yl 4-(2-oxo-2,3-dihydro-1H-imidazo[4,5-b]pyridin-1-yl)piperidine-1-carboxylate] |
| 2.86 nM | O=C1CCC(c2cccc(F)c2F)CCC1OC(=O)N1CCC(n2c(=O)[nH]c3ncccc32)CC1 (centres unmarked) [Example 1, 5-(2,3-difluorophenyl)-2-oxocycloheptyl 4-(2-oxo-2,3-dihydro-1H-imidazo[4,5-b]pyridin-1-yl)piperidine-1-carboxylate] |
| 0.25 nM | Nc1cnc2c(c1)C[C@H](c1cccc(F)c1F)CC[C@H]2NC(=O)N1CCC(n2c(=O)[nH]c3ncccc32)CC1 [Example 14, N-((6R,9R)-3-amino-6-(2,3-difluorophenyl)-6,7,8,9-tetrahydro-5H-cyclohepta[b]pyridin-9-yl)-4-(2-oxo-2,3-dihydro-1H-imidazo[4,5-b]pyridin-1-yl)piperidine-1-carboxamide] |
| 7.41 nM | O=C(O[C@@H]1CC[C@@H](c2ccc(F)c(F)c2)Cc2cccnc21)N1CCC(n2c(=O)[nH]c3ncccc32)CC1 (relative stereo) [Example 12, (6,9-Trans)-6-(3,4-Difluorophenyl)-6,7,8,9-tetrahydro-5H-cyclohepta[b]pyridin-9-yl 4-(2-oxo-2,3-dihydro-1H-imidazo[4,5-b]pyridin-1-yl)piperidine-1-carboxylate] |
| 1.25 nM | O=C(O[C@@H]1CC[C@@H](c2cccc(F)c2F)Cc2cccnc21)N1CCC(N2CCc3ccccc3NC2=O)CC1 (relative stereo) [Example 3, (6,9-anti)-6-(2,3-difluorophenyl)-6,7,8,9-tetrahydro-5H-cyclohepta[b]pyridin-9-yl 4-(2-oxo-4,5-dihydro-1H-benzo[d][1,3]diazepin-3(2H)-yl)piperidine-1-carboxylate] |

| Compound | IC50 |
| --- | --- |
| O=C(O[C@@H]1CC[C@@H](c2cccc(F)c2F)Cc2cccnc21)N1CCC(n2c(=O)[nH]c3ncccc32)CC1 (relative stereo) [Example 2] | 0.23 nM |
| (6,9-Trans)-6-(2,3-difluorophenyl)-6,7,8,9-tetrahydro-5H-cyclohepta[b]pyridin-9-yl 2-oxo-1,2-dihydrospiro[benzo[d][1,3]oxazine-4,4′-piperidine]-1′-carboxylate [Example 13] | 1.55 nM |
| O=C(O[C@@H]1CC[C@@H](c2cccc(F)c2F)Cc2cccnc21)N1CCC(n2c(=O)[nH]c3ncccc32)CC1 [Example 21] | 0.12 nM |
